{"source": "patent US20070173545A1", "about": "“Activation of hypoxia-inducible gene expression” (priority 2003, published 2007)", "key": {"[1]": {"system": "HIF-1a protein", "test": "HIF-1a levels in nuclear extracts of U87 glioma cells (western blot)", "type": "cell-based, human", "details": "150 μm DFO, four hours", "method": "(A) U87 glioma cells cultured in DMEM were switched to Krebs buffer containing 5.5 mM glucose (Glc) and then evaluated for nuclear HIF-1a levels at various times by western blot analysis. (B) HIF-1a levels were measured after four hours incubation of cells in Krebs buffer containing the indicated glucose concentrations or with 5.5 mM 2-deoxyglucose (2-DG) substituted for glucose. (C) HIF-1a levels were measured in U87 cells cultured in glucose-free Krebs buffer following treatment for four hours under normoxia (21% oxygen) hypoxia (1% oxygen) or with 150 μm desferrioxamine (DFO). (D) Induction of HIF-1a by glucose was monitored in the presence of 50 μM IAA or 1 mM 4-CIN. […] Results are representative of experiments repeated at least three times.\nSimilar measurements were made in the presence of 50 μM IAA or in glucose-free Krebs buffer. […] HIF-1a induction by four hours treatment with 5.5 mM glucose-containing Krebs (Glc) is shown for comparison. (E) Digitonin-permeabilized cells were treated with 1% oxygen or Krebs containing either 5.5 mM glucose or 2 mM pyruvate in the presence of 50 μM IAA. Permeabilized cell in lanes 5 and 6 were treated with 3 mM NAD or NADH respectively in glucose free Krebs. Nuclear HIF-1a levels were determined four hours later. (F) HIF-1a levels were determined after four hour treatment of cells in glucose-free Krebs (lane 1) or 5.5 mM Glucose containing Krebs. […] (H) To measure the decay of the HIF-1a protein, HIF-1a measurements were made after four hour treatment under hypoxia (lane 1), four hours hypoxia followed by 30 minutes normoxia (lane 2), four hour treatment with 150 μM DFO (lane 3), four hours DFO followed by addition of 100 μM CHX for one hour (lane 4), four hours treatment with 2 mM pyruvate (lane 5), and four hours pyruvate followed by addition of 100 μM CHX for one hour (lane 6). (H) HIF-1a levels were determined in digitonin-permeabilized cells treated for four hour with Krebs containing no glucose (lane 1), 1 mM pyruvate (lane 2), or 1 mM pyruvate and 10 mM 2-OG (lane 3).\nIn order to resolve the biochemical mechanisms underlying this phenomenon, we studied the human glioma cell line U-87 under conditions of carefully defined culture media. Thus we studied these cells while culturing them in freshly prepared Krebs buffer, all components of which were known to us.\nTo precisely define the glucose metabolite mediating HIF-1a accumulation, we utilized pharmacological inhibitors of glycolysis as well as the direct addition of different glucose metabolites to cells (FIG. 4)."}, "[2]": {"system": "HRE containing promoter", "test": "HRE-GFP reporter in U373 cells", "type": "cell-based, human", "details": "eight hours, glucose-free medium", "source_text": "(§1) FIG. 18: 2-oxoacids activate HIF-mediated gene expression in human cell lines Effective gene expression by HIF not only involves HIF protein stabilization via inhibition of HPH enzymes but also HIF-1 binding to DNA, inhibition of FIH-1 activity, and gene transcription (see FIG. 1). (A) Glioma cells used in our studies express FIH-1 as assessed using RT-PCR. […] Expression of beta-actin, a housekeeping gene not under HIF regulation is not affected by pyruvate. […] (E) U373 cell were transfected with a green fluorescent protein (GFP) construct under the control of an HIF regulatory element (HRE) containing promoter and then cultured for eight hours in glucose-free medium under the indicated conditions. […] U251 cells stably transfected with a luciferase construct under the control of an HRE containing promoter were cultured for six hours in glucose free Krebs with the following conditions: 1=control, 2=1% oxygen, 3=pyruvate (2 mM), 4=OAA (2 mM), 5=Ethylpyruvate (2 mM), 6=Glucose (5.5 mM), 7=DMOG (0.5 mM), 8=Lactacystin-beta lactone ([…]).\nEffective gene expression by HIF not only involves HIF protein stabilization via inhibition of HPH enzymes but also HIF-1 binding to DNA, inhibition of FIH-1 activity, and gene transcription. The human gliomas that we utilized for most of our studies all express mRNA for FIH-1 (FIG. 18A). […]"}, "[3]": {"system": "HRE containing promoter", "test": "HRE-luciferase reporter in U251 cells", "type": "cell-based, human", "details": "six hours, glucose free Krebs, pyruvate, OAA, Ethylpyruvate 2 mM, Lactacystin-beta lactone 20 mM", "source_text": "as §1\nFIG. 19: HIF-mediated gene expression is selectively reversed by ascorbate U251 cells stably expressing HRE-luciferase were cultured in glucose-free Krebs buffer with the indicated conditions for eight hours. Pyruvate, oxaloacetate, and DMOG were added at 1 mM each.\nEffective gene expression by HIF not only involves HIF protein stabilization via inhibition of HPH enzymes but also HIF-1 binding to DNA, inhibition of FIH-1 activity, and gene transcription. The human gliomas that we utilized for most of our studies all express mRNA for FIH-1 (FIG. 18A). […] To directly assess activation of gene containing an HRE regulated promoter by the glucose metabolites pyruvate and oxaloacetate, we used U373 glioma cells transfected with an HRE-green fluorescent (HRE-GFP) construct that responds to HIF activation."}, "[4]": {"system": "HIF-1a", "test": "HIF-1a induction in digitonin-permeabilized human glioma cells (U87, U251)", "type": "cell-based", "details": "1 mM doses", "method": "We determined the ability of each shown structure to induce HIF by exposing digitonin-permeabilized human glioma cells (U87, U251) to 1 mM doses.\nAt four hours, ATP levels were measured in cell extracts using the luciferase method.\nIn order to investigate the mechanism of action of the 2-oxoacid HIF inducers that we identified we first determined their effects upon cellular ATP levels. […] As shown in the scheme in FIG. 1, cellular levels of HIF-1a can be elevated by blockade of proteasomal activity, ubiquitinylation, or prolyl hydroxylation. Inhibition of the proteasome by lactacystin beta-lactone (Lbl) leads to accumulation of HIF-1a in its polyubiquitinylated form which generally appears as a smear of higher molecular weight species on western blots. […] Cellular accumulation and nuclear translocation of HIF-1a can also be studied via immunohistochemistry. For this purpose we utilized U251 cells which are more adherent to cell culture dishes that the U87 cells."}, "[5]": {"system": "HPH homologues 1, 2 and 3", "test": "^35S-pVHL pulldown assay, in vitro translated HPH homologues", "type": "biochemical, human", "details": "2-OG analogs at 1 mM, 5 mM or 25 mM [2-OG], ascorbate at 2 mM", "method": "After incubating the peptide with the HPHs and the indicated reagents, ^35S-pVHL was added followed by addition of streptavidin-coated beads to pull down the HIF-1a peptide. The reaction was pelleted, the pellet was washed and then solubilized for SDS-PAGE analysis followed by autoradiography to reveal the captured ^35S-pVHL. Using in vitro translated HPH homologues we first optimized assay conditions with respect to the required HPH substrates and co-factors. […] Conditions for other reagents were: ascorbate=2 mM, iron sulfate=250 μM, DTT=1 mM. […] Conditions: ascorbate=2 mM, 2-OG=2 mM, DTT=1 mM. […] Conditions: 2-OG=125 μM, iron sulfate=250 μM, DTT=1 mM. […] In all assays 5 μl (about 20 ng) of enzyme and 1 μg of peptide was utilized.\nFIG. 13: In vitro effects of 2-OG analogs on recombinant HPH activity HPH activity was assessed via the ^35S-pVHL pulldown assay as in FIG. 11. Activity of in vitro translated HPH homologues was determined in the absence and presence of the 2-OG analogs N-oxalylglycine (NOG), pyruvate or OAA at 1 mM.\nTo directly evaluate the action of pyruvate and oxaloacetate on HPH activity (step D in FIG. 2) we utilized the commonly used ^35S-pVHL pulldown assay. This assay monitors the ability of HPH homologues to confer ^35S-pVHL binding activity onto a biotinylated 19mer peptide containing the key proline564 residue of the HIF-1a ODD (see FIG. 1). […]"}, "[6]": {"system": "HIF-1a", "test": "HIF-1a decay after washout of the inducer in U251 and U87 cells", "type": "cell-based, human", "details": "1 mM pyruvate four hours, then glucose free Krebs in normoxia", "method": "FIG. 16: Ascorbate reverses the prolonged HIF-1a accumulation (A) Comparison of HIF-1a decay in U251 following induction with either hypoxia or pyruvate. U251 cells were cultured in glucose-free Krebs under hypoxia or with 1 mM pyruvate in normoxia for four hours. Following this cells were switched to glucose free Krebs in normoxia and fixed in formaldehyde at the indicated times. Cells were then stained for HIF-1a immunoreactivity. Note the rapid decay of nuclear HIF-1a staining after having been induced by hypoxia versus pyruvate. (B) U87 cell treated for four hours under hypoxia show prominent HIF-1a induction which is completely degraded by thirty minutes of re-oxygenation. U87 cells were treated in glucose-free Krebs buffer with or without 1 mM pyruvate or oxaloacetate.\nHPH-2 has been reported to constitute the major HPH activity of most cells. We therefore evaluated the ability of ascorbate to prevent HIF-1a accumulation by pyruvate and oxaloacetate in living cells. […] To test this possibility we compared the reversibility of HIF-1a accumulation following induction with either hypoxia, pyruvate, or oxaloacetate. The rationale for these experiments stems from the well-known reversible inhibition of HPH activity by hypoxia (see FIG. 1). Thus HIF-1a accumulation and HIF activation during hypoxia is rapidly reversed upon re-oxygenation. […]"}, "[7]": {"system": "HPH", "test": "HPH activity of extracts of pretreated U251 cells (^35S-pVHL pulldown)", "type": "cell-based, human", "details": "four hours, 1 mM pyruvate or oxaloacetate, DMOG", "method": "FIG. 17: Inactivation of cellular HPH activity by pyruvate and oxaloacetate U251 cells were cultured for four hours in glucose-free Krebs buffer with or without the indicated additions. Whole cell extracts were then prepared and used as a source of HPH enzyme to hydroxylate a biotinylated peptide from the HIF-1a ODD containing proline 564. Proline hydroxylation was measured by the ability of streptavidin coated beads to pulldown the hydroxyproline ^35S-pVHL complex as in FIGS. 12-14.\nTo directly determine whether HPH activity had been inactivated by pyruvate or oxaloacetate treatment, we evaluated the ability of U251 cell extracts from pyruvate or oxaloacetate treated cells to hydroxylate HIF-1a peptide using the ^35S-pVHL pulldown assay (Ivan et al. (2002) Proc. Natl. Acad. Sci. USA 99, 13459-13466). In these experiments, ascorbate was omitted from the in vitro portion of the assay."}}, "note": "Entries after “also recorded” stand apart in the source; their conditions may differ.", "data": [{"smiles": "CC(=O)N(O)CCCCCNC(=O)CCC(=O)N(O)CCCCCNC(=O)CCC(=O)N(O)CCCCCN", "note": "[DFO, desferrioxamine]", "values": [{"measurement": "HIF-1a levels in glucose-free Krebs buffer", "setting": "[1]", "result": "still upregulate HIF-1a protein in the absence of glucose"}, {"measurement": "HRE-GFP expression", "setting": "[2]", "result": "activated HRE-GFP expression; also recorded: GFP (green fluorescence) was expressed"}, {"measurement": "HRE-luciferase expression", "setting": "[3]", "result": "enhanced HRE-luciferase expression"}]}, {"smiles": "O=C(O)CNC(=O)C(=O)O", "note": "[NOG, N-oxalylglycine]", "values": [{"measurement": "Ability to induce HIF (HIF-1a accumulation), structure-activity", "setting": "[4]", "result": "consistently enhanced HIF-1a levels"}, {"measurement": "Inhibition of 2-OG catalyzed HPH activity", "setting": "[5]", "result": "inhibition by NOG is clearly evident"}]}, {"smiles": "CC(=O)C(=O)O", "note": "[pyruvate]", "values": [{"measurement": "Persistence of HIF-1a accumulation after washing out", "setting": "[6]", "result": "> 40", "unit": "min"}]}, {"smiles": "COC(=O)CNC(=O)C(=O)OC", "note": "[DMOG, dimethyloxalylglycine]", "values": [{"measurement": "Ability to induce HIF (HIF-1a accumulation), structure-activity", "setting": "[4]", "result": "consistently enhanced HIF-1a levels"}, {"measurement": "HPH activity of extracts of pretreated cells", "setting": "[7]", "result": "No such pretreatment-induced inhibition; also recorded: no such loss of HPH activity"}]}]}
